Measurements reported in patent US12522596B2, “Compounds as GLP-1R agonists” (Terns Pharmaceuticals, Inc., priority 2021, dated 2026).
Where two headings read alike, the source gives them in different places.

Test: Pharmacokinetics in hGLP-1R mice after oral dosing
Format: in vivo, male C57BL/6J hGLP-1R mouse
Settings: male, C57BL/6J hGLP-1R, mouse, plasma, po; for AUC0-inf: read-out: AUC0-inf; for MRT inf: read-out: MRT0-inf; for MRT last: read-out: MRT0-last; for concentration at 120 min: hGLP-1R mouse plasma collected at 120 min (IPGTT cohort)
Protocol: IPGTT (120 min)—PK bleeding: 40 μL blood samples (all treatment groups) were collected from mice under the jaw at IPGTT-120 min after blood glucose measurement into pre-chilled EDTA-2K tubes. Blood samples were processed for plasma by centrifugation at 4° C., 3200×g for 10 min. 15 μL plasma was stored at −80° C. for PK analysis. From 4 mice in Group 7 of the PD cohort, whole brain was collected after blood is harvested at 120 min post dose, rinsed with saline and patted dry and placed into a pre-weighed tube and stored at −80° C. collected for PK analysis.
PK bleeding group design is described in Table 9.
PK bleeding: 30 μL blood was collected at 0.25, 0.5, 1, 2, 4, and 8 h. Blood samples were processed for plasma by centrifugation at 4° C., 3200×g for 10 min. 12 μL plasma was collected at −80° C. for further analysis. From 3 mice in Group 7 of the PK cohort, whole brain was collected after blood is harvested at 8 hr post dose, rinsed with saline and patted dry and placed into a pre-weighed tube and stored at −80° C. collected for PK analysis.
For plasma: An aliquot of 3 μL sample was protein precipitated with 60 μL internal standard (100 ng/mL Labetalol & 100 ng/ml Dexamethasone & 100 ng/ml Tolbutamide & 100 ng/mL Verapamil & 100 ng/ml Glyburide & 100 ng/ml Celecoxib in ACN) and then the mixture was vortex-mixed for 10 min at 800 rpm and centrifuged for 15 min at 3220×g, 4° C.
The linear/log trapezoidal rule was applied in obtaining the PK parameters. Individual plasma concentration values that were below the lower limit of quantitation (LOQ) were excluded from the PK parameter calculation. The nominal dose levels and nominal sampling times were used in the calculation of all pharmacokinetic parameters.

[1] = 0.3 mg/kg, hGLP-1R mouse plasma, PO 0.3 mg/kg, read-out: Mean Concentration
[2] = 0.3 mg/kg, hGLP-1R mouse plasma, PO 0.3 mg/kg, individual animals, read-out: Concentration
[3] = 0.3 mg/kg, hGLP-1R mouse plasma, PO 0.3 mg/kg, mean
[4] = 1 mg/kg, hGLP-1R mouse plasma, PO 1 mg/kg, individual animals, read-out: Concentration
[5] = 1 mg/kg, hGLP-1R mouse plasma, PO 1 mg/kg, read-out: Mean Concentration
[6] = 1 mg/kg, hGLP-1R mouse plasma, PO 1 mg/kg, individual mice
[7] = 1 mg/kg, hGLP-1R mouse plasma, PO 1 mg/kg, mean
[8] = 3 mg/kg, hGLP-1R mouse plasma, PO 3 mg/kg, read-out: Mean Concentration
[9] = 3 mg/kg, hGLP-1R mouse plasma, PO 3 mg/kg, mean

Compound: N#Cc1ccc(COc2cccc(C3CCN(Cc4nc5ccc(C(=O)O)cc5n4Cc4cncs4)CC3)n2)c(F)c1 [Compound 2]
- concentration at 0.5 h [1]: 80.6 ng/mL
- concentration at 1 h [2]: 43.3 ng/mL
- concentration at 1 h [1]: 49.4 ng/mL
- concentration at 2 h (0.3 mg/kg, hGLP-1R mouse plasma, PO 0.3 mg/kg): 10.6 ng/mL
- concentration at 4 h [1]: 3.74 ng/mL
- concentration at 8 h [2]: 2.34 ng/mL
- concentration at 8 h [1]: 1.99 ng/mL
- AUC0-inf (0.3 mg/kg, hGLP-1R mouse plasma, PO 0.3 mg/kg, individual mice): 124 ng·h/mL
- AUC(0-t) (0.3 mg/kg, hGLP-1R mouse plasma, PO 0.3 mg/kg, individual mice, read-out: AUC0-last): 117 ng·h/mL
- Cmax (0.3 mg/kg, hGLP-1R mouse plasma, PO 0.3 mg/kg, individual mice, read-out: Cmax): 63.4 ng/mL
- Tmax (0.3 mg/kg, hGLP-1R mouse plasma, PO 0.3 mg/kg, individual mice, read-out: Tmax): 30 min
- AUC0-inf [3]: 111 ng·h/mL
- AUC(0-t) (0.3 mg/kg, hGLP-1R mouse plasma, PO 0.3 mg/kg, mean, read-out: AUC0-last): 107 ng·h/mL
- Cmax (0.3 mg/kg, hGLP-1R mouse plasma, PO 0.3 mg/kg, mean, read-out: Cmax): 82.7 ng/mL
- MRT inf [3]: 1.7 h
- MRT last [3]: 1.4 h
- half-life (0.3 mg/kg, hGLP-1R mouse plasma, PO 0.3 mg/kg, mean, read-out: T1/2 (converted)): 84 min
- Tmax (0.3 mg/kg, hGLP-1R mouse plasma, PO 0.3 mg/kg, mean, read-out: Tmax): 25 min
- AUC(0-t) (1 mg/kg, hGLP-1R mice, total, PO 1.0 mg/kg, read-out: AUClast Mean): 390 ng·h/mL
- Cmax (1 mg/kg, hGLP-1R mice, total, PO 1.0 mg/kg, read-out: Cmax Mean): 283 ng/mL
- half-life (1 mg/kg, hGLP-1R mice, total, PO 1.0 mg/kg, read-out: T1/2 (converted)): 85.2 min
- Tmax (1 mg/kg, hGLP-1R mice, total, PO 1.0 mg/kg, read-out: Tmax Median): 30 min
- concentration at 120 min (1 mg/kg, PO 1 mg/kg, read-out: Mean Concentration): 69.8 ng/mL
- concentration at 0.25 h [4]: 320 ng/mL
- concentration at 0.25 h [5]: 251 ng/mL
- concentration at 0.5 h [4]: 329 ng/mL
- concentration at 0.5 h [5]: 283 ng/mL
- concentration at 1 h [4]: 252 ng/mL
- concentration at 1 h [5]: 197 ng/mL
- concentration at 2 h (1 mg/kg, hGLP-1R mouse plasma, PO 1 mg/kg): 48.6 ng/mL
- concentration at 4 h [4]: 7.58 ng/mL
- concentration at 4 h [5]: 7.51 ng/mL
- concentration at 8 h [5]: 4.73 ng/mL
- AUC0-inf [6]: 507 ng·h/mL
- AUC(0-t) (1 mg/kg, hGLP-1R mouse plasma, PO 1 mg/kg, individual mice, read-out: AUC0-last): 498 ng·h/mL
- Cmax (1 mg/kg, hGLP-1R mouse plasma, PO 1 mg/kg, individual mice, read-out: Cmax): 329 ng/mL
- MRT inf [6]: 1.47 h
- MRT last [6]: 1.32 h
- half-life (1 mg/kg, hGLP-1R mouse plasma, PO 1 mg/kg, individual mice, read-out: T1/2 (converted)): 76.8 min
- Tmax (1 mg/kg, hGLP-1R mouse plasma, PO 1 mg/kg, individual mice, read-out: Tmax): 30 min
- AUC0-inf [7]: 400 ng·h/mL
- AUC(0-t) (1 mg/kg, hGLP-1R mouse plasma, PO 1 mg/kg, mean, read-out: AUC0-last): 390 ng·h/mL
- Cmax (1 mg/kg, hGLP-1R mouse plasma, PO 1 mg/kg, mean, read-out: Cmax): 283 ng/mL
- MRT inf [7]: 1.57 h
- MRT last [7]: 1.35 h
- half-life (1 mg/kg, hGLP-1R mouse plasma, PO 1 mg/kg, mean, read-out: T1/2 (converted)): 85.2 min
- Tmax (1 mg/kg, hGLP-1R mouse plasma, PO 1 mg/kg, mean, read-out: Tmax): 30 min
- Tmax (3 mg/kg, hGLP-1R mice, oral, across the doses tested (0.3, 1 and, for Compound 2, 3 mg/kg), read-out: median Tmax): 30 min
- AUC(0-t) (3 mg/kg, hGLP-1R mice, total, PO 3.0 mg/kg, read-out: AUClast Mean): 2440 ng·h/mL
- Cmax (3 mg/kg, hGLP-1R mice, total, PO 3.0 mg/kg, read-out: Cmax Mean): 1820 ng/mL
- half-life (3 mg/kg, hGLP-1R mice, total, PO 3.0 mg/kg, read-out: T1/2 (converted)): 122 min
- Tmax (3 mg/kg, hGLP-1R mice, total, PO 3.0 mg/kg, read-out: Tmax Median): 30 min
- concentration at 120 min (3 mg/kg, PO 3 mg/kg, read-out: Mean Concentration): 277 ng/mL
- concentration at 0.25 h [8]: 1570 ng/mL
- concentration at 0.5 h [8]: 1790 ng/mL
- concentration at 1 h [8]: 990 ng/mL
- concentration at 2 h (3 mg/kg, hGLP-1R mouse plasma, PO 3 mg/kg): 304 ng/mL
- concentration at 4 h [8]: 84.4 ng/mL
- concentration at 8 h (3 mg/kg, hGLP-1R mouse plasma, PO 3 mg/kg, individual animals, read-out: Concentration): 92.1 ng/mL
- concentration at 8 h [8]: 47.5 ng/mL
- MRT last (3 mg/kg, hGLP-1R mouse plasma, PO 3 mg/kg, individual mice): 2.04 h
- Tmax (3 mg/kg, hGLP-1R mouse plasma, PO 3 mg/kg, individual mice, read-out: Tmax): 30 min
- AUC0-inf [9]: 2620 ng·h/mL
- AUC(0-t) (3 mg/kg, hGLP-1R mouse plasma, PO 3 mg/kg, mean, read-out: AUC0-last): 2440 ng·h/mL
- Cmax (3 mg/kg, hGLP-1R mouse plasma, PO 3 mg/kg, mean, read-out: Cmax): 1820 ng/mL
- MRT inf [9]: 2.64 h
- MRT last [9]: 1.66 h
- half-life (3 mg/kg, hGLP-1R mouse plasma, PO 3 mg/kg, mean, read-out: T1/2 (converted)): 122 min
- Tmax (3 mg/kg, hGLP-1R mouse plasma, PO 3 mg/kg, mean, read-out: Tmax): 25 min
- half-life (hGLP-1R male mice, oral, across doses, read-out: terminal T1/2): < 120 min
